Earlier results in patent US20210275546A1, “HIGH DRUG LOAD SOLID ORAL DOSAGE FORMS OF DEXAMETHASONE” (Jubilant Pharma Holdings Inc., priority 2020, published 2021).
“Also recorded” adds a separate entry of the source.

solubility in acetone (acetone): sparingly soluble
solubility in dichloromethane (dichloromethane): slightly soluble
solubility in ethanol (ethanol): sparingly soluble
solubility in methanol (methanol): sparingly soluble
Compound: C[C@@H]1C[C@H]2[C@@H]3CCC4=CC(=O)C=C[C@]4(C)[C@@]3(F)[C@@H](O)C[C@]2(C)[C@@]1(O)C(=O)CO [Dexamethasone, 9-fluoro-11β,17,21trihydroxy-16α-methylpregna-1,4-diene-3,20-dione]
solubility in water (water): practically insoluble; also recorded: poorly water-soluble
